Results: patent publication US11534441B2, “MAP4K1 inhibitors” (Blueprint Medicines Corporation, priority 2020, dated 2022)

Biological target: MAP4K1 (HPK1) (Homo sapiens (Human), UniProt Q92918)
Assay: MAP4K1 (HPK1) biochemical enzymatic activity, electrophoretic mobility shift (EZReader 2), ATP at APPKM (26 μM)
From the text: MAP4K1 (HPK1) and relevant off-target enzymatic activity was monitored using the Perkin Elmer electrophoretic mobility shift technology platform—the EZReader 2. […] Within the linear, steady-state phase of the kinase enzymatic reaction, the mixed pool of phosphorylated (product) and non-phosphorylated (substrate) peptides was passed through the microfluidic system of the PerkinElmer EZ Reader 2, under an applied electric potential difference. The presence of the phosphate group on the product peptide provided a difference in mass and charge between that of the substrate peptide, resulting in a separation of the substrate and product pools in the sample (Perrin et al. 2010). As the product and substrate peptide mixture passes the lasers within the instrument, these pools are detected (λex=488 nm, λent=568 nm) and resolved as separate peaks. The ratio between these peaks reflects the activity of the compound at that concentration, in that well, under those conditions.
Inhibitors were dissolved in 100% DMSO at a stock concentration of 10 mM. A 100×, 10-point, 4-fold serial dilution of each inhibitor was created in 100% DMSO either manually or on a Hamilton STAR liquid handler, starting at a relevant concentration, usually 1 mM. A volume of 0.130 μL of each concentration was transferred to the relevant wells of a 384-well plate (Greiner 781 201) in duplicate using a TTPLabtech Mosquito nano-litre dispenser. Using a Multidrop Combi, the remaining constituents of the kinase reaction were added to the 130 nL of dosed compound as follows (see table below for final reaction details):
Enzyme activity assays at the ^APPKM for ATP or 1 mM ATP: In each well of a 384-well plate, 0.1-15 nM of untreated enzyme was incubated in a total of 13 μL of buffer (100 mM HEPES pH 7.5, 0.015% Brij 35, 10 mM MgCl2, 1 mM DTT) with 1.5 μM fluorescent peptid and 20-1000 μM ATP, at 25° C., for 60-180 minutes in the presence or absence of a dosed concentration series of compound (1% DMSO final concentration). The kinase reactions were stopped by the addition of 70 μl of Stop buffer (100 mM HEPES pH 7.5, 0.015% Brij 35, 35 mM EDTA and 0.2% of Coating Reagent 3 (Caliper Lifesciences)). The plates were read on a Caliper EZReader 2 as described above.

MAP4K1 (HPK1), sequence (Q92918 whole entry): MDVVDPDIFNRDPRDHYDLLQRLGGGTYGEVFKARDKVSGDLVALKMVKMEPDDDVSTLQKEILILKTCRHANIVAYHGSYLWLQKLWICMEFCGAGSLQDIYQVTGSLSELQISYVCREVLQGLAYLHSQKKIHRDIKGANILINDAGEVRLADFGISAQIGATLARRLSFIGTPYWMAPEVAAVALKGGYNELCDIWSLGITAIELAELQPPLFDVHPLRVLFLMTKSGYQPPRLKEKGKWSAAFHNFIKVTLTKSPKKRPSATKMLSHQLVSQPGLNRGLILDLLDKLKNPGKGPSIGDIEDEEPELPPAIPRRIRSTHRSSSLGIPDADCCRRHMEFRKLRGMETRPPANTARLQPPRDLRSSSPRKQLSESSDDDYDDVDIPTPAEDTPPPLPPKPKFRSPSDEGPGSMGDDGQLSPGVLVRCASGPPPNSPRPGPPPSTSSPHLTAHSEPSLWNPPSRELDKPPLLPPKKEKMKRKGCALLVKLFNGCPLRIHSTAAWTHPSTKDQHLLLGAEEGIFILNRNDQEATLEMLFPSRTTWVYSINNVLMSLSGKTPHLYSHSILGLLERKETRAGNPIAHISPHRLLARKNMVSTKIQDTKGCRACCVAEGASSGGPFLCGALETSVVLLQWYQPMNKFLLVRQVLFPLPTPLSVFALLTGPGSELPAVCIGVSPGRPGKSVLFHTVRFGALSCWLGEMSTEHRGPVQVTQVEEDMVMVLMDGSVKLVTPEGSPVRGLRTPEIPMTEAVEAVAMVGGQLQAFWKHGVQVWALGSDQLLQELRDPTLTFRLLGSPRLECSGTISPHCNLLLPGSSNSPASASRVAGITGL

Row | IC50 (class designation) | IC50 (numeric value) | Structure (SMILES)
1 | 1.1 to 10 nM | 3.57 nM | CC[C@H](F)c1nc(Nc2cc3c(C(C)(C)N)cnc(OC)c3cn2)cnc1C#N (single isomer, unassigned) [Compound 30]
2 | 1.1 to 10 nM | 5.88 nM | CC[C@@H](F)c1nc(Nc2cc3c(C(C)(C)N)cnc(OC)c3cn2)cnc1C#N (single isomer, unassigned) [Compound 31]
3 | 0.31 to 1 nM | 0.55 nM | CC[C@](C)(N)c1cnc(OC)c2cnc(Nc3ccc4c(n3)CC(C)(C)OC4=O)cc12 (single isomer, unassigned) [Compound 62]
4 | – | 0.98 nM | C[C@](N)(c1cnc(OC2CC2)c2cnc(Nc3ccc4c(n3)CCOC4=O)cc12)C1CC1 (single isomer, unassigned) [Compound 108]
5 | 1.1 to 10 nM | 2.25 nM | C[C@@H]1OC(=O)c2ccc(Nc3cc4c(C(C)(N)CO)cnc(OC5CC5)c4cn3)nc2[C@H]1C (single isomer, unassigned) [Compound 139, (7S,8R)-2-((5-((R)-2-Amino-1-hydroxypropan-2-yl)-8-cyclopropoxy-2,7-naphthyridin-3-yl)amino)-7,8-dimethyl-7,8-dihydro-5H-pyrano[4,3-b]pyridin-5-one or (7S,8R)-2-((5-((S)-2-amino-1-hydroxypropan-2-yl)-8-cyclopropoxy-2,7-naphthyridin-3-yl)amino)-7,8-dimethyl-7,8-dihydro-5H-pyrano[4,3-b]pyridin-5-one]
6 | > 10 nM | – | C[C@@H]1OC(=O)c2ccc(Nc3cc4c([C@](C)(N)CO)cnc(OC5CC5)c4cn3)nc2[C@H]1C (single isomer, unassigned) [Compound 140, (7S,8R)-2-((5-((R)-2-Amino-1-hydroxypropan-2-yl)-8-cyclopropoxy-2,7-naphthyridin-3-yl)amino)-7,8-dimethyl-7,8-dihydro-5H-pyrano[4,3-b]pyridin-5-one or (7S,8R)-2-((5-((S)-2-amino-1-hydroxypropan-2-yl)-8-cyclopropoxy-2,7-naphthyridin-3-yl)amino)-7,8-dimethyl-7,8-dihydro-5H-pyrano[4,3-b]pyridin-5-one]
7 | – | 0.11 nM | CC1(C)Cc2nc(Nc3cc4c([C@](C)(N)C5CC5)cnc(OC5CC5)c4cn3)ccc2C(=O)N1 (single isomer, unassigned) [Compound 148]
8 | – | 2.61 nM | CC1(C)Cc2nc(Nc3cc4c([C@@](C)(N)C5CC5)cnc(OC5CC5)c4cn3)ccc2C(=O)O1 (single isomer, unassigned) [Compound 153]
9 | 1.1 to 10 nM | 7.35 nM | C[C@H](Oc1ncc(C(C)(C)N)c2cc(Nc3ccc4c(n3)CC(C)(C)OC4=O)ncc12)C(F)F (single isomer, unassigned) [Compound 164]
10 | 1.1 to 10 nM | 1.26 nM | C[C@@H](Oc1ncc(C(C)(C)N)c2cc(Nc3ccc4c(n3)CC(C)(C)OC4=O)ncc12)C(F)F (single isomer, unassigned) [Compound 165]
11 | 1.1 to 10 nM | 1.72 nM | CC[C@](C)(N)c1cnc(OCC(F)(F)F)c2cnc(Nc3ccc4c(n3)C(C)(C)OC4=O)cc12 (single isomer, unassigned) [Compound 173]
12 | > 10 nM | 35.1 nM | CC[C@@](C)(N)c1cnc(OCC(F)(F)F)c2cnc(Nc3ccc4c(n3)C(C)(C)OC4=O)cc12 (single isomer, unassigned) [Compound 175]
13 | 1.1 to 10 nM | 2.12 nM | C[C@@H](Oc1ncc(C(C)(C)N)c2cc(Nc3ccc4c(n3)CC(C)(C)OC4=O)ncc12)C(F)(F)F (single isomer, unassigned) [Compound 179]
14 | > 10 nM | 15.4 nM | C[C@H](Oc1ncc(C(C)(C)N)c2cc(Nc3ccc4c(n3)CC(C)(C)OC4=O)ncc12)C(F)(F)F (single isomer, unassigned) [Compound 180]
15 | < 0.3 nM | 0.22 nM | CC[C@@H](N)c1ccc(OC)c2cnc(Nc3ccc4c(n3)C3(CC3)C(C)(C)OC4=O)cc12 (single isomer, unassigned) [Compound 207, (S)-2′-((5-(1-Aminopropyl)-8-methoxyisoquinolin-3-yl)amino)-7′,7′-dimethyl-5′H,7′H-spiro[cyclopropane-1,8′-pyrano[4,3-b]pyridin]-5′-one or (R)-2′-((5-(1-aminopropyl)-8-methoxyisoquinolin-3-yl)amino)-7′,7′-dimethyl-5′H,7′H-spiro[cyclopropane-1,8′-pyrano[4,3-b]pyridin]-5′-one]
16 | > 10 nM | 21.4 nM | COc1ncc([C@H](C)N)c2cc(Nc3ccnc(C(C)(C)F)n3)ncc12 (stereo in doubt) [Compound 1, 5-(1-Aminoethyl)-N-(2-(2-fluoropropan-2-yl)pyrimidin-4-yl)-8-methoxy-2,7-naphthyridin-3-amine]
17 | 0.31 to 1 nM | 0.42 nM | COc1ncc(C(C)(C)N)c2cc(Nc3ccnc(OC(C)C)n3)ncc12 [Compound 4]

Row | IC50 (class designation) | IC50 (numeric value) | Structure (SMILES)
18 | 1.1 to 10 nM | 3.31 nM | CNc1ncc(C(C)(C)N)c2cc(Nc3ccnc(C(C)(C)F)n3)ncc12 [Compound 6, 4-(2-Aminopropan-2-yl)-N6-(2-(2-fluoropropan-2-yl)pyrimidin-4-yl)-N1-methyl-2,7-naphthyridine-1,6-diamine]
19 | > 10 nM | 11.1 nM | CNc1ncc(C(C)(C)N)c2cc(Nc3cnc(C#N)c(C(C)C)n3)ncc12 [Compound 8, 5-((5-(2-Aminopropan-2-yl)-8-(methylamino)-2,7-naphthyridin-3-yl)amino)-3-isopropylpyrazine-2-carbonitrile]
20 | 1.1 to 10 nM | 2.73 nM | COc1ncc(C(C)(C)N)c2cc(Nc3cnc(C#N)c(C(C)C)n3)ncc12 [Compound 10]
21 | 1.1 to 10 nM | 2.5 nM | CCOc1ncc(C(C)(C)N)c2cc(Nc3ccnc(C(C)(C)F)n3)ncc12 [Compound 16]
22 | 1.1 to 10 nM | 4.02 nM | CNC(C)(C)c1cnc(OC)c2cnc(Nc3ccnc(C(C)(C)F)n3)cc12 [Compound 17, N-(2-(2-Fluoropropan-2-yl)pyrimidin-4-yl)-8-methoxy-5-(2-(methylamino)propan-2-yl)-2,7-naphthyridin-3-amine]
23 | 0.31 to 1 nM | 0.4 nM | CC[C@@H](C)c1nc(Nc2cc3c(C(C)(C)N)cnc(OC)c3cn2)ccc1C#N [Compound 18]
24 | < 0.3 nM | 0.3 nM | COc1ncc(C(C)(C)N)c2cc(Nc3ccnc(N4CCC[C@@H]4C)n3)ncc12 [Compound 27]
25 | 1.1 to 10 nM | 3.98 nM | COc1ncc(C(C)(C)N)c2cc(Nc3cnc(C#N)c(C(C)(C)F)n3)ncc12 [Compound 29]
26 | > 10 nM | 13.6 nM | COc1ncc(C(C)(C)N)c2cc(Nc3cnc4c(n3)CC(C)(C)OC4=O)ncc12 [Compound 47]
27 | 0.31 to 1 nM | 1.01 nM | COc1ncc(C(C)(C)N)c2cc(Nc3cnc(C#N)c(N4CCC[C@@H]4C)n3)ncc12 [Compound 49]
28 | > 10 nM | 52.6 nM | COc1ncc(C2CCCN2)c2cc(Nc3ccc4c(n3)CC(C)(C)OC4=O)ncc12 (stereo not shown) [Compound 50, 2-((8-Methoxy-5-(pyrrolidin-2-yl)-2,7-naphthyridin-3-yl)amino)-7,7-dimethyl-7,8-dihydro-5H-pyrano[4,3-b]pyridin-5-one]
29 | < 0.3 nM | 0.26 nM | COc1ncc(C(C)(C)N)c2cc(Nc3ccc4c(n3)[C@H]3CCC[C@H]3OC4=O)ncc12 [Compound 51]
30 | 1.1 to 10 nM | 6.46 nM | COc1ncc(C(C)(C)N)c2cc(Nc3cnc(C#N)c(C(C)C(F)(F)F)n3)ncc12 (stereo not shown) [Compound 63]
31 | 0.31 to 1 nM | 0.56 nM | C[C@H]1OC(=O)c2ccc(Nc3cc4c(C(C)(C)N)cnc(OC5CC5)c4cn3)nc2[C@@H]1C [Compound 65]
32 | 1.1 to 10 nM | 1.32 nM | CC[C@@](C)(N)c1cnc(OC2(C)CC2)c2cnc(Nc3ccc4c(n3)[C@@H](C)[C@H](C)OC4=O)cc12 [Compound 84]
33 | 1.1 to 10 nM | 2.03 nM | CC[C@@](C)(N)c1cnc(OC2(C)CC2)c2cnc(Nc3ccc4c(n3)[C@@H](C)C(C)(C)OC4=O)cc12 [Compound 86]

Row | Structure (SMILES) | IC50 (class designation) | IC50 (numeric value)
34 | C[C@@H]1OC(=O)c2ccc(Nc3cc4c([C@@](C)(N)C5CC5)cnc(O[C@H]5C[C@H](O)C5)c4cn3)nc2[C@H]1C (relative stereo) [Compound 193, (7S,8R)-2-((5-((R)-1-Amino-1-cyclopropylethyl)-8-((trans)-3-hydroxycyclobutoxy)-2,7-naphthyridin-3-yl)amino)-7,8-dimethyl-7,8-dihydro-5H-pyrano[4,3-b]pyridin-5-one and (7S,8R)-2-((5-((S)-1-amino-1-cyclopropylethyl)-8-((trans)-3-hydroxycyclobutoxy)-2,7-naphthyridin-3-yl)amino)-7,8-dimethyl-7,8-dihydro-5H-pyrano[4,3-b]pyridin-5-one] | < 0.3 nM | 0.1 nM
